In PubChem BioAssay (NCI):
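Briefly, cells in 96-well plates were exposed to five compound concentrations for 48 h, and endpoints were estimated by linear interpolation. GI50 is the concentration that inhibits growth by half. TGI: concentration producing complete growth inhibition.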

Assays:
Assay in all cases: growth of human tumour cells (NCI), 48 h
[1] = system: 786-0 renal
[2] = system: A498 renal
[3] = system: A549 NSCLC
[4] = system: ACHN renal
[5] = system: BT-549 breast
[6] = system: CCRF-CEM leukemia
[7] = system: COLO 205 colon
[8] = system: DU-145 prostate
[9] = system: EKVX NSCLC
[10] = system: HCC-2998 colon
[11] = system: HCT-116 colon
[12] = system: HCT-15 colon
[13] = system: HL-60(TB) leukemia
[14] = system: HOP-62 NSCLC
[15] = system: HOP-92 NSCLC
[16] = system: HS 578T breast
[17] = system: HT29 colon
[18] = system: IGROV1 ovarian
[19] = system: K-562 leukemia
[20] = system: KM12 colon
[21] = system: LOX IMVI melanoma
[22] = system: M14 melanoma
[23] = system: MALME-3M melanoma
[24] = system: MCF7 breast
[25] = system: MDA-MB-231 breast
[26] = system: MDA-MB-435
[27] = system: MOLT-4 leukemia
[28] = system: NCI-H226 lung
[29] = system: NCI-H23 lung
[30] = system: NCI-H460 lung
[31] = system: NCI-H522 lung
[32] = system: NCI/ADR-RES ovarian
[33] = system: OVCAR-3 ovarian
[34] = system: OVCAR-4 ovarian
[35] = system: OVCAR-5 ovarian
[36] = system: OVCAR-8 ovarian
[37] = system: PC-3 prostate
[38] = system: RPMI-8226 leukemia
[39] = system: RXF 393 renal
[40] = system: SF-268 CNS
[41] = system: SF-295 CNS
[42] = system: SF-539 CNS
[43] = system: SK-MEL-2 melanoma
[44] = system: SK-MEL-28 melanoma
[45] = system: SK-MEL-5 melanoma
[46] = system: SK-OV-3 ovarian
[47] = system: SN12C renal
[48] = system: SNB-19 CNS
[49] = system: SNB-75 CNS
[50] = system: SR leukemia
[51] = system: SW-620 colon
[52] = system: T-47D breast
[53] = system: TK-10 renal
[54] = system: U251 CNS
[55] = system: UACC-257 melanoma
[56] = system: UACC-62 melanoma
[57] = system: UO-31 renal

Structure (SMILES): COc1cc(O)c2c(c1)[C@H]1O[C@@H]1C[C@H](O)[C@H](O)C(=O)/C=C\C[C@H](C)OC2=O
- GI50 [1]: 4.87 µM
- TGI [1]: 27.4 µM
- GI50 [2]: 1.93 µM
- TGI [2]: 9.51 µM
- GI50 [3]: 16.7 µM
- TGI [3]: > 33.3 µM
- GI50 [4]: 2.14 µM
- TGI [4]: > 33.3 µM
- GI50 [5]: 1.18 µM
- TGI [5]: 10.7 µM
- GI50 [6]: 1.54 µM
- TGI [6]: > 33.3 µM
- GI50 [7]: 0.0226 µM
- TGI [7]: 4.02 µM
- GI50 [8]: 3.53 µM
- TGI [8]: > 33.3 µM
- GI50 [9]: 3.88 µM
- TGI [9]: > 30.8 µM
- GI50 [10]: 4.85 µM
- TGI [10]: 19 µM
- GI50 [11]: 0.779 µM
- TGI [11]: > 17.5 µM
- GI50 [12]: 1.81 µM
- TGI [12]: 23.4 µM
- GI50 [13]: 0.197 µM
- TGI [13]: > 10.6 µM
- GI50 [14]: 8.97 µM
- TGI [14]: > 29.7 µM
- GI50 [15]: 0.176 µM
- TGI [15]: 2.88 µM
- GI50 [16]: 5.92 µM
- TGI [16]: 27 µM
- GI50 [17]: 0.0883 µM
- TGI [17]: 13.4 µM
- GI50 [18]: 1.27 µM
- TGI [18]: > 33.3 µM
- GI50 [19]: 2.09 µM
- TGI [19]: > 33.3 µM
- GI50 [20]: 12.2 µM
- TGI [20]: > 33.3 µM
- GI50 [21]: 1.25 µM
- TGI [21]: > 19.3 µM
- GI50 [22]: 0.0483 µM
- TGI [22]: 6.84 µM
- GI50 [23]: 0.00553 µM
- TGI [23]: 0.0231 µM
- GI50 [24]: 2.09 µM
- TGI [24]: > 33.3 µM
- GI50 [25]: 2.05 µM
- TGI [25]: 16.2 µM
- GI50 [26]: 0.298 µM
- TGI [26]: 7.15 µM
- GI50 [27]: 2.65 µM
- TGI [27]: > 33.3 µM
- GI50 [28]: 3.71 µM
- TGI [28]: > 27.1 µM
- GI50 [29]: 1.95 µM
- TGI [29]: > 27.3 µM
- GI50 [30]: 4.96 µM
- TGI [30]: > 21.2 µM
- GI50 [31]: 0.599 µM
- TGI [31]: 6.42 µM
- GI50 [32]: 8.56 µM
- TGI [32]: > 33.3 µM
- GI50 [33]: 2.49 µM
- TGI [33]: 16.5 µM
- GI50 [34]: 1.07 µM
- TGI [34]: > 33.3 µM
- GI50 [35]: 3.98 µM
- TGI [35]: > 33.3 µM
- GI50 [36]: 6.08 µM
- TGI [36]: > 28.6 µM
- GI50 [37]: 11.5 µM
- TGI [37]: > 33.3 µM
- GI50 [38]: 1.5 µM
- TGI [38]: 14.5 µM
- GI50 [39]: 1.56 µM
- TGI [39]: 8.19 µM
- GI50 [40]: 6.54 µM
- TGI [40]: > 28.5 µM
- GI50 [41]: 9.57 µM
- TGI [41]: > 33.3 µM
- GI50 [42]: 4.68 µM
- TGI [42]: 12.6 µM
- GI50 [43]: 1.68 µM
- TGI [43]: 10.5 µM
- GI50 [44]: 0.0445 µM
- TGI [44]: 2.32 µM
- GI50 [45]: 1.58 µM
- TGI [45]: 10.3 µM
- GI50 [46]: 24 µM
- TGI [46]: > 33.3 µM
- GI50 [47]: 5.25 µM
- TGI [47]: > 27.7 µM
- GI50 [48]: 8.59 µM
- TGI [48]: > 33.3 µM
- GI50 [49]: 6.11 µM
- TGI [49]: > 33.3 µM
- GI50 [50]: 3.08 µM
- TGI [50]: > 30.6 µM
- GI50 [51]: 0.56 µM
- TGI [51]: 6.36 µM
- GI50 [52]: 0.774 µM
- TGI [52]: 18.3 µM
- GI50 [53]: 1.69 µM
- TGI [53]: 20.3 µM
- GI50 [54]: 8.57 µM
- TGI [54]: > 33.3 µM
- GI50 [55]: 0.0584 µM
- TGI [55]: 0.525 µM
- GI50 [56]: 0.114 µM
- TGI [56]: 5.33 µM
- GI50 [57]: 0.561 µM
- TGI [57]: > 21.6 µM
